IC50 and melting point data for 32 compounds are collected here from patent US6747057B2 (priority 2001, dated 2004).

One series deals with GSK-3. Format: biochemical. The conditions noted are these: read-out: IC50 GSK-3 inhibition.
Series [1] deals with Tau phosphorylation in primary cultured cerebellar neurones. The experiment in a line: cells. Format: cell-based. To be noted: Rattus norvegicus, 16 h, read-out: IC50 Tau phosphorylation inhibition in neurones measured by Tau-1 immunoreactivity.

Broadly, the IC50 is the concentration needed to halve the response being measured. For the compound `N#Cc1cccc(C(=O)C(Br)Br)c1` [Compound 44, 3-(2,2-Dibromo-acetyl)-benzonitrile], in the series with GSK-3, the IC50 amounted to 1000 nM. The same measure, in the same setting: to `O=C(CBr)c1ccc(C(F)(F)F)cc1` [Compound 40, 2-Bromo-1-(4-trifluoromethyl-phenyl)-ethanone] belongs 5000 nM. On the same count and under the same terms, to `Cc1sc(C(=O)CCl)cc1C(=O)CCl` [Compound 11, 2-Chloro-1-[4-(2-chloro-acetyl)-5-methyl-thiophen-2-yl]-ethanone] belongs 5000 nM. For orientation: melting point means the temperature of the solid-liquid transition. Regarding `CC(=O)c1csc(C(=O)CCl)c1` [Compound 20, 1-(4-Acetyl-thiophen-2-yl)-2-chloro-ethanone], the melting point lay within 118 to 119 °C. Moreover, the half-maximal inhibitory concentration (IC50) in the series on GSK-3 stood at 8000 nM. With `O=C(CCl)c1ccc(Cl)cc1` [Compound 24, 2-Chloro-1-(4-chloro-phenyl)-ethanone], the IC50 in the series with GSK-3 was found to be 2500 nM.

`O=C(CBr)c1ccccc1` [Compound 30, 2-Bromo-1-phenyl-ethanone]: the IC50 in the series with GSK-3 is 5000 nM. For `O=C(CCl)c1cc(Cl)c(Cl)s1` [Compound 2, 2-Chloro-1-(4,5-dichloro-thiophen-2-yl)-ethanone], the IC50 in the series on GSK-3 came out at 2500 nM. As for `N#Cc1ccc(C(=O)C(Br)Br)cc1` [Compound 39, 4-(2,2-Dibromo-acetyl)-benzonitrile], the 50% inhibitory concentration (IC50) in the series with GSK-3 stood at 1500 nM.

In the case of `O=C(CBr)c1ccc(-c2ccccc2)cc1` [Compound 33, 1-Biphenyl-4-yl-2-bromo-ethanone], the 50% inhibitory concentration (IC50) in the series on GSK-3 was determined as 2500 nM.

In the case of `O=C(CCl)c1c(Br)sc(Cl)c1Cl` [Compound 1, 1-(2-Bromo-4,5-dichloro-thiophen-3-yl)-2-chloro-ethanone], the results for the half-inhibitory concentration (IC50) (in series [1]; in the series on GSK-3) were 30 µM and 2000 nM, respectively. For `O=C(CCl)c1ccc(Br)s1` [Compound 8, 1-(5-Bromo-thiophen-2-yl)-2-chloro-ethanone], the half-inhibitory concentration (IC50) in the series on GSK-3 was 10000 nM. The same measure, in the same setting: next, `O=C(CCl)c1ccccc1` [Compound 25, 2-Chloro-1-phenyl-ethanone]: 50000 nM. As to `O=C(CCl)c1scc(Br)c1Br` [Compound 15, 2-Chloro-1-(3,4-dibromo-thiophen-2-yl)-ethanone], the melting point fell in the range of 86 to 88 °C. Moreover, in the series with GSK-3, the IC50 came out at 500 nM. Take `O=C(CCl)c1cc(Br)cs1` [Compound 3, 1-(4-Bromo-thiophen-2-yl)-2-chloro-ethanone]: in the series with GSK-3, the 50% inhibitory concentration (IC50) came out at 3000 nM.

For the compound `O=C(CCl)c1cscc1Cl` [Compound 4, 2-Chloro-1-(4-chloro-thiophen-3-yl)-ethanone], in the series with GSK-3, the IC50 came to 25000 nM. On the same count and under the same terms, next, `O=C(CBr)c1cc(Br)c(Br)s1` [Compound 22, 2-Bromo-1-(4,5-dibromo-thiophen-2-yl)-ethanone]: 1000 nM. Still for that read-out and setting: to `O=C(CBr)c1ccc(Br)cc1` [Compound 28, 2-Bromo-1-(4-bromo-phenyl)-ethanone] belongs 500 nM. Same read-out and setting: next, `O=C(CBr)c1ccc(N2CCOCC2)cc1` [Compound 42, 2-Bromo-1-(4-morpholin-4-yl-phenyl)-ethanone]: 6000 nM.

`O=C(CCl)c1cc(Cl)sc1Cl` [Compound 6, 2-Chloro-1-(2,5-dichloro-thiophen-3-yl)-ethanone] came in with a melting point of 43 to 44 °C. Also, the IC50 with GSK-3 was 5000 nM. On to `O=C(CBr)c1ccc(Br)s1` [Compound 23, 2-Bromo-1-(5-bromo-thiophen-2-yl)-ethanone], for which the IC50 with GSK-3 is 1000 nM.

For the compound `Nc1c(Br)cc(C(=O)CBr)cc1Br` [Compound 47, 1-(4-Amino-3,5-dibromo-phenyl)-2-bromo-ethanone], the melting point fell in the range of 146 to 147 °C. In addition, the half-maximal inhibitory concentration (IC50) in the series with GSK-3 came to 3000 nM. The compound `O=C(CBr)c1ccc(Br)c(Br)c1` [Compound 27, 2-Bromo-1-(3,4-dibromo-phenyl)-ethanone] registered a melting point of 60 to 61 °C. For the same compound, in the series with GSK-3, the half-maximal inhibitory concentration (IC50) was found to be 750 nM. With `O=C(c1ccc(C(F)(F)F)cc1)C(Br)Br` [Compound 41, 2,2-Dibromo-1-(4-trifluoromethyl-phenyl)-ethanone], the melting point is 40 to 41 °C. In addition, in the series on GSK-3, the IC50 came to 5000 nM. For the compound `Cc1ccsc1C(=O)CCl` [Compound 18, 2-chloro-1-(3-methyl-thiophen-2-yl)-ethanone], in the series on GSK-3, the half-maximal inhibitory concentration (IC50) was determined as 75000 nM. Same read-out and setting: next, `O=C(CBr)c1scc(Br)c1Br` [Compound 21, 2-Bromo-1-(3,4-dibromo-thiophen-2-yl)-ethanone]: 1000 nM. `O=C(c1ccc(I)cc1)C(Br)Br` [Compound 45, 2,2 -Dibromo-1-(4-iodo-phenyl)-ethanone] showed a melting point of 77 to 78 °C. Moreover, in the series with GSK-3, the IC50 was found to be 2000 nM. `CC(=O)c1ccc(C(=O)CCl)s1` [Compound 19, 1-(5-Acetyl-thiophen-2-yl)-2-chloro-ethanone]: the IC50 with GSK-3 is 50000 nM. For the compound `O=C(CCl)c1csc(C(=O)CCl)c1` [Compound 9, 2-Chloro-1-[4-(2-chloro-acetyl)-thiophen-2-yl]-ethanone], the melting point lay in the range of 154 to 155 °C. Also, the half-inhibitory concentration (IC50) in the series with GSK-3 turned out to be 1500 nM. The corresponding values for `Cc1c(C(=O)CCl)csc1C(=O)CCl` [Compound 16, 2-Chloro-1-[5-(2-chloro-acetyl)-4-methyl-thiophen-3-yl]-ethanone] are 155 to 156 °C and 2500 nM.

As for `O=C(CCl)c1cccs1` [Compound 10, 2-Chloro-1-thiophen-2-yl-ethanone], in the series with GSK-3, the half-inhibitory concentration (IC50) stood at 50000 nM. On the same count and under the same terms, next, `O=C(CCl)c1cc(Br)c(Br)s1` [Compound 14, 2-Chloro-1-(4,5-dibromo-thiophen-2-yl)-ethanone]: 1000 nM. For the compound `O=C(CCl)c1c(Br)sc(Br)c1Br` [Compound 5, 2-Chloro-1-(2 4,5-tribromo-thiophen-3-yl) -ethanone], the concentration for half-maximal inhibition (IC50) was found to be 30 µM in series [1] and 1000 nM in the series on GSK-3.
